What all share (experiment): NCI-60 cell line screen, 48 h
Test [1] deals with U-251.
In test [2] the test system is SK-MEL-2.
The test system of test [3] is T47D.
In test [4] the test system is ACHN.
The test system of test [5] is SF-295.
For test [6], the system named is NCI-H460.
For test [7], the system named is OVCAR-5.
Test [8] concerns HOP-62.
The subject of test [9] is HL-60.
In test [10] the test system is M14.
Test [11] deals with Malme-3M.
In test [12] the test system is NCI-H226.
For test [13], the system named is UACC-257.
The subject of test [14] is OVCAR-8.
The subject of test [15] is TK-10.
Test [16] relates to SNB-75.
For test [17], the system named is SF-539.
The test system of test [18] is HOP-92.
Test [19] deals with OVCAR-4.
For test [20], the system named is RXF 393.

We go through 11 molecules from ChEMBL document CHEMBL1201862, “PubChem BioAssay data set” (2004).

Each structure is given as a SMILES string.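 Tested at 5 concentrations; 48 h exposure; 96-well plates; endpoints linearly interpolated, else capped at highest concentration. GI50 = concentration required for 50% inhibition of growth.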 The source made the active and inactive calls. Rule as the data show it: active = GI50 up to about 1.1 µM and inactive = higher.

Consider `CN1CC2=C(N=C(S)NC2c2ccccc2)/C(=C/c2ccccc2)C1` (configuration not stated), for which the GI50 in test [1] was 54.5 µM (inactive); in test [2], 45.9 µM (inactive); in test [3], 44.8 µM (inactive); in [4], 52.6 µM (inactive); in test [5] it was 17.9 µM (inactive); in test [6] it was 32.1 µM (inactive). For the same molecule, the GI50 in test [7] is > 100 µM (inactive); in [8], > 100 µM (inactive); in test [9] it was > 10 µM (inactive); in test [10], 25.4 µM (inactive); in test [11], 30.1 µM (inactive); in [12] it was > 100 µM (inactive). For the same molecule, the GI50 in test [13] is 91.6 µM (inactive); in test [14] it was > 10 µM (inactive); in [15], 26 µM (inactive); in test [16], 48 µM (inactive); in test [17] it was 83.9 µM (inactive).

For the molecule `CN1C2=Nc3n(C)c4ccccc4[n+]3CN2c2ccccc21`, the GI50 in [1] was 25.2 µM (inactive); in test [2], 18.4 µM (inactive); in test [3], 16.3 µM (inactive); in test [4] it was > 100 µM (inactive); in [5] it was 95.7 µM (inactive); in test [6], 24.2 µM (inactive). In addition, the GI50 was 84.1 µM (inactive) in test [7]; > 100 µM (inactive) in test [8]; > 100 µM (inactive) in [9]; 43.7 µM (inactive) in [10]; 4.21 µM (inactive) in [11]; 32.1 µM (inactive) in test [13]. The GI50 in [14] was 57.1 µM (inactive); in test [15], > 100 µM (inactive); in [18] it was 22.6 µM (inactive); in test [17] it was 69.5 µM (inactive).

Turning to `O/N=C1/CCC/C1=C\c1ccccc1`, the GI50 in test [1], in test [2], in test [4], in [5], in [19] and in [6] was > 100 µM (inactive) throughout. The GI50 was 67.5 µM (inactive) in test [7]; > 100 µM (inactive) in test [8]; 28.6 µM (inactive) in test [9]; > 100 µM (inactive) in test [10]; > 100 µM (inactive) in [11]; > 100 µM (inactive) in [12]. In addition, the GI50 in test [13] is > 100 µM (inactive); in test [14], > 100 µM (inactive); in test [15] it was > 100 µM (inactive); in [20], 96.6 µM (inactive); in test [18] it was > 100 µM (inactive); in [16], 18.5 µM (inactive). Further, in test [17], the GI50 was > 100 µM (inactive).

With `O=C1COc2cc(N3CCN(c4cccc(C(F)(F)F)c4)CC3)ccc2N1`, the GI50 in test [1], in [2], in [3], in [4], in [5] and in test [19] was > 100 µM (inactive) each time. Also, the GI50 in test [6], in test [7], in test [8], in test [9], in test [10] and in test [12] was > 100 µM (inactive) throughout. In addition, the GI50 in test [13], in [14], in [15], in [18], in test [16] and in test [17] was > 100 µM (inactive) throughout.

On to `COc1cc2nc(NCCCCCNC(=O)c3ccco3)nc(N)c2cc1OC`, for which the GI50 was 20.5 µM (inactive) in [1]; 19.7 µM (inactive) in [2]; 52.5 µM (inactive) in [4]; 37.2 µM (inactive) in [5]; 29.3 µM (inactive) in [19]; 32 µM (inactive) in test [6]. Further, the GI50 in test [7] was 38.3 µM (inactive); in test [8], 24.2 µM (inactive); in test [9], 21.4 µM (inactive); in test [10], 18.5 µM (inactive); in test [11] it was 17.4 µM (inactive); in test [12], 32.7 µM (inactive). The GI50 was 19.5 µM (inactive) in test [13]; 33.7 µM (inactive) in [14]; 53.1 µM (inactive) in test [15]; 27.6 µM (inactive) in test [20]; 12.2 µM (inactive) in test [18]; 22.6 µM (inactive) in [16]. Moreover, in [17], the GI50 was 19.6 µM (inactive).

Take `O=C(C[n+]1ccccc1)N/N=C(/CCC(=O)N(Cc1ccccc1)Cc1ccccc1)CC(=O)c1ccccc1`: the GI50 in test [1], in test [2], in test [4], in test [5], in test [19] and in [6] was > 100 µM (inactive) each time. Moreover, the GI50 in test [7], in [8], in [9], in test [10], in [11] and in test [12] was > 100 µM (inactive) in each case. Also, the GI50 in test [13], in test [14], in test [15], in test [20], in test [18] and in [16] was > 100 µM (inactive) throughout. Moreover, in test [17], the GI50 is > 100 µM (inactive).

In the case of `O=[N+]([O-])c1ccccc1/C=N/C12CC3CC(CC(C3)C1)C2`, the GI50 in [1] was > 100 µM (inactive); in test [2], 65.8 µM (inactive); in test [4], > 100 µM (inactive); in test [5], > 100 µM (inactive); in test [19], 87.7 µM (inactive); in test [6] it was > 100 µM (inactive). In addition, the GI50 in test [7] is > 100 µM (inactive); in test [8], 99.5 µM (inactive); in [9] it was 21.4 µM (inactive); in [10], 56.1 µM (inactive); in test [11] it was 66.1 µM (inactive); in test [12], > 100 µM (inactive). For the same molecule, the GI50 in [13] is > 100 µM (inactive); in [14], 75 µM (inactive); in [15] it was > 100 µM (inactive); in [20], > 100 µM (inactive); in [18], 72.8 µM (inactive); in test [16], 65 µM (inactive). For the same molecule, in [17], the GI50 is 80.2 µM (inactive).

Turning to `C=C1C(=O)OC2CC(=C)C3CC=C(C)C3CC12` (configuration not stated), the GI50 in [1] is 15.3 µM (inactive); in [2], 11.7 µM (inactive); in test [3], 14.3 µM (inactive); in [4], 18.7 µM (inactive); in test [5], 32.4 µM (inactive); in test [19] it was 27.3 µM (inactive). The GI50 in [6] was 28.8 µM (inactive); in [7], 46.7 µM (inactive); in [8], 47 µM (inactive); in test [9], 18.3 µM (inactive); in test [10] it was 18 µM (inactive); in test [11], > 10 µM (inactive). Also, the GI50 in [12] was 15.6 µM (inactive); in [13] it was 14.4 µM (inactive); in test [14], 35.9 µM (inactive); in test [15], 18 µM (inactive); in [18], 10.5 µM (inactive); in [17], 38.1 µM (inactive).

Take `CC(C)c1c2[nH]c3ccccc3c2c(C(C)C)c2[nH]c3ccccc3c12`: the GI50 in [1] was > 100 µM (inactive); in test [2], > 100 µM (inactive); in test [4] it was 91.8 µM (inactive); in test [5] it was > 65.9 µM (inactive); in test [19] it was > 45.3 µM (inactive); in [6], > 57.7 µM (inactive). Also, the GI50 in [7] is 47.5 µM (inactive); in test [8], > 100 µM (inactive); in [9], 16.5 µM (inactive); in test [10], > 74.8 µM (inactive); in test [11], > 51.4 µM (inactive); in test [12] it was > 47.3 µM (inactive). The GI50 is > 100 µM (inactive) in test [13]; > 100 µM (inactive) in [14]; > 100 µM (inactive) in test [15]; > 100 µM (inactive) in [20]; 22.4 µM (inactive) in [18]; > 89.7 µM (inactive) in test [16]. For the same molecule, the GI50 in test [17] is > 100 µM (inactive).

Turning to `CC[C@@]1(O)C(=O)OCc2c1cc1n(c2=O)Cc2cc3c(N)cccc3nc2-1` [9-AMINOCAMPTOTHECIN], the GI50 in test [1] was 0.0108 µM (active); in test [2], 0.233 µM (active); in test [4], < 0.01 µM (active); in [5] it was < 0.01 µM (active); in [19], 0.238 µM (active); in [6] it was < 0.01 µM (active). For the same molecule, the GI50 in [7] is 0.128 µM (active); in [8], < 0.01 µM (active); in test [9], < 0.01 µM (active); in test [10] it was 0.0113 µM (active); in [11], 0.0785 µM (active); in test [12] it was 0.0102 µM (active). The GI50 in test [13] is 0.0571 µM (active); in test [14] it was 0.0148 µM (active); in test [15], 1.63 µM (inactive); in [20], 0.0408 µM (active); in [18] it was 0.0356 µM (active); in test [16], < 0.0115 µM (active). Also, in [17], the GI50 was < 0.01 µM (active).

Regarding `Cc1cc(O)cc2oc(=O)c3c(O)cc(O)cc3c12` [ALTERNARIOL], the GI50 in test [1] was 28.5 µM (inactive); in test [2] it was 37.6 µM (inactive); in [4], 14.1 µM (inactive); in test [5] it was 26.3 µM (inactive); in test [19], 65.3 µM (inactive); in test [6], 13.1 µM (inactive). The GI50 in test [7] is 69.2 µM (inactive); in test [8] it was 20.7 µM (inactive); in test [9] it was 16.4 µM (inactive); in [10], 60 µM (inactive); in test [11], 40.3 µM (inactive); in test [12] it was 19.5 µM (inactive). In addition, the GI50 in test [13] was > 100 µM (inactive); in test [14], 43.2 µM (inactive); in test [15] it was 44.5 µM (inactive); in test [20] it was 23.3 µM (inactive); in [18] it was 30.5 µM (inactive); in test [16], 12.7 µM (inactive). In addition, in test [17], the GI50 is 17 µM (inactive).
